{"source": "patent US10538561B2", "about": "“Peptide for treating inflammatory diseases” (priority 2015, dated 2020)", "key": {"[1]": {"tested_on": "HaCaT (Human keratinocyte) cell line", "experiment": "Mitochondrial membrane potential by JC-1 assay", "type": "cell-based", "settings": "20 h", "method": "For testing Apoptosis the Human Keratinocytes (HaCaT) cell line has been employed. The growth conditions are DMEM containing 1% FBS. […] Test concentration range is IS181 is tested at the highest (Qualitative analysis) effective concentrations selected on the basis of Quantitative JC-1 assay. The method of estimation is Mitochondrial membrane depolarization by JC-1 assay (Early apoptosis), LDH enzyme release (Necrosis). Treatment regimen & time points are JC-1 assay—Single addition, 20 h; LDH assay—Single addition, 24 h; Positive control: Triton-X-100, Doxorubicin-hydrochloride\nQuantitative effect on Δψm (Red fluorescence/Green fluorescence) in HaCaT cells post 20 hours of treatment. […] Evaluation (Qualitative and quantitative) of differential JC-1 staining in treated cells after 20 h on incubation with the test peptides."}, "[2]": {"tested_on": "Human Keratinocytes (HaCaT)", "experiment": "DNA fragmentation assay in HaCaT", "type": "cell-based", "settings": "48 h", "method": "Cells were lysed and fragmented DNA was precipitated using PEG/NaCl solution. The fragmented DNA was incubated with 0.2 μg/ml of Hoechst 33258 dye and fluorescence was read at 360 ex/460 em. End point: Percentage induction of DNA fragmentation with respect to untreated Positive control. Anthralin. IS 181 led to induction of DNA fragmentation in HaCaT cells at all the concentrations tested except at 100 μg/ml. […] The overall effect of IS 181 on induction of DNA fragmentation with respect to untreated in HaCaT cells ranged from −18.8% to 83.3%. (FIG. 8 and Table-6)."}, "[3]": {"tested_on": "Cyclobutane Pyrimidine Dimers (CPD)", "experiment": "UVB damage: cyclobutane pyrimidine dimers (ELISA)", "type": "cell-based, human", "settings": "HaCaT", "method": "Effect on Cyclobutane Pyrimidine Dimers (CPD); Effect on 8-oxo-G formation: Cell line: HaCaT (human keratinocytes); test items: IS 181; concentration range: 0.1-100 μg/ml (Duplicate wells). Method of estimation: Plating of cells; Sera starvation with 0.1% FBS (24 hours); treatment of cells with test items (24 hours); UVB damage (30 mJ/cm2)+Test items addition (24 hours); Cyclobutane pyrimidine dimers (CPD) and 8-oxo-G estimation using ELISA."}, "TNF-α": {"tested_on": "TNF-α", "experiment": "LPS stimulated TNF-α secretion in RAW264.7", "type": "cell-based, Mouse", "settings": "for TNF-α % decrease with respect to LPS / TNF-α Conc (pg/ml): RAW264.7 + LPS, 24 h", "method": "Effect on pro-inflammatory cytokines against LPS stimulation: TNF-α; IL-6; IL-1-β: Cell lines: Murine macrophage cell line (RAW264.7); test item: IS181; experimental steps: pretreatment of cells with TI for 2 hours; stimulation with LPS (100 ng/ml) for 24 hours; supernatant collection for cytokine analysis; concentration range: o.1 μg/ml-500 μg/ml (duplicate wells); Cytokines: TNF-α; IL-6; IL-1-β; Method of estimating cytokines: ELISA; positive control: dexamethasone.\nCell line: RAW264.7 (Mouse macrophages); TI treatment regimen: Pretreatment for 2 h; TI Concentration range: 0.1 μg/ml-500 μg/ml (duplicate wells); LPS stimulation: 100 ng/ml; Time point for supernatants collection: 24 h; Method of estimation: ELISA; Positive control: Dexamethasone"}, "TARC": {"tested_on": "TARC", "experiment": "TNF-α stimulated TARC secretion in HaCaT", "type": "cell-based, Human", "settings": "for TARC % decrease with respect to TNF-α / TARC Conc: HaCaT + TNF-α, 24 h", "method": "Effect on pro-inflammatory cytokines against TNF-α/LPS+PMA stimulation: TNF-α; IFN-γ; TARC; TSLP; IL-6; IL-8: Cell lines: Human keratinocytes (HaCaT); test item (TI); IS181; experimental steps: pre-treatment of cells with TI for 2 hours; stimulation with TNF-α: 20 ng/ml; stimulation with LPS+PMA-10 μg/ml LPS+40 ng/ml PMA; supernatant collection for cytokine analysis after 24 hours; concentration range: 0.1 μg/ml-100 μg/ml (duplicate wells); cytokines: TNF-α; IFN-γ; TARC; TSLP; IL-6; IL-8. Method of estimating cytokines: ELISA; positive control: dexamethasone.\nCell line: HaCaT (Human Keratinocytes); TI Treatment regimen: Pretreatment for 2 h; TI Concentration range: 0.1 μg/ml-100 μg/ml (duplicate wells); TNF-α stimulation: 20 ng/ml; LPS+PMA stimulation: 10 μg/ml LPS+40 ng/ml PMA; Time point for supernatants collection: 24 h; Method of estimation: ELISA; Positive control: Dexamethasone"}, "FLT1 (VEGFR1)": {"target": "FLT1 (VEGFR1) (Homo sapiens, UniProt P17948)", "sequence (P17948 27-1338)": "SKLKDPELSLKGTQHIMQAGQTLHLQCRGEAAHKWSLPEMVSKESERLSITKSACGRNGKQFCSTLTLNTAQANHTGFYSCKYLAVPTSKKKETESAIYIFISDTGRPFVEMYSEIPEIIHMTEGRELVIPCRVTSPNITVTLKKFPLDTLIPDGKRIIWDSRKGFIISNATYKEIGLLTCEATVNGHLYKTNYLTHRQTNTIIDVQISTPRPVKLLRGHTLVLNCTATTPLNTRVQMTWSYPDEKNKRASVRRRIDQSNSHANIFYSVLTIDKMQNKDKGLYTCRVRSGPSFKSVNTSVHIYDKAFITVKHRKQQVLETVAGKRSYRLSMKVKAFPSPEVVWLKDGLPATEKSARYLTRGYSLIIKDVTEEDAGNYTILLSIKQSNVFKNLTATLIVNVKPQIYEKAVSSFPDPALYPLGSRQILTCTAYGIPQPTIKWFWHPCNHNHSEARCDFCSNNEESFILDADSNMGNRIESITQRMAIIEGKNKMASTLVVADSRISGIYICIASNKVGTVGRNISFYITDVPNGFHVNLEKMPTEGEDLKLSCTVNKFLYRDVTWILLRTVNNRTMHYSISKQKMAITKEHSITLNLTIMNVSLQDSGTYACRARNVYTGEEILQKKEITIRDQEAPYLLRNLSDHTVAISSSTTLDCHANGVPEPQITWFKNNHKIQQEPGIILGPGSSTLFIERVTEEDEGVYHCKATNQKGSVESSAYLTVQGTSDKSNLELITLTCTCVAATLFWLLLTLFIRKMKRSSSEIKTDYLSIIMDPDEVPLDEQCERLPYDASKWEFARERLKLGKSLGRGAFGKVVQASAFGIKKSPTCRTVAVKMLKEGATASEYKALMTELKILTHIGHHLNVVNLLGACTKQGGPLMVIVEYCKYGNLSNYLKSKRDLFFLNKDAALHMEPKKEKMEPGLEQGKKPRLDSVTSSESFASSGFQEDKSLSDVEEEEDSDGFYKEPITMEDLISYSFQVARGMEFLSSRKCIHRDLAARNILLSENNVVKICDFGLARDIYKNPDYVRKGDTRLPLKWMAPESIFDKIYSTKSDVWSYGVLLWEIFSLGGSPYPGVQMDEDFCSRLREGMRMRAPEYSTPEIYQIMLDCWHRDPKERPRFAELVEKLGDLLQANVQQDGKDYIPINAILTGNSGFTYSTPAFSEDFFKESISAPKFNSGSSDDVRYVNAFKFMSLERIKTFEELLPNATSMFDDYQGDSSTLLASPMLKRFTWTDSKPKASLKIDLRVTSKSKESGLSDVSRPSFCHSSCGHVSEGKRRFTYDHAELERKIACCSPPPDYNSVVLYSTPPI", "experiment": "Biochemical kinase assay FLT1", "settings": "cell free", "method": "Test system: cell free assays; test items: IS181; concentrations tested: 1 ng/ml-5000 μg/ml; Kinases: a) Cell free assays: EGFR (ErbB1); FLT1 (VEGFR1); JAK1; JAK3 MAP2K1 (MEK1); PDGFRA (PDGFR alpha); PRKCA (PKC alpha); b) cell based assay: JAK-STAT."}}, "note": "Marks after values point to notes of the source that are not given here."}
{"substance": "H-WVQRVVEKFLK-OH [IS181, H-Trp-Val-Gln-Arg-Val-Val-Glu-Lys-Phe-Leu-Lys-OH]", "values": [{"measurement": "Green fluorescence intensity (RFU)", "setting": "[1]; 400 μg/ml", "value": "13.67 ± 1.89", "unit": "RFU"}, {"measurement": "Red fluorescence intensity (RFU)", "setting": "[1]; 400 μg/ml", "value": "134.33 ± 32.06", "unit": "RFU"}, {"measurement": "Red fluorescence intensity/Green fluorescence intensity", "setting": "[1]; 400 μg/ml", "value": 9.83}, {"measurement": "Green fluorescence intensity (RFU)", "setting": "[1]; 475 μg/ml", "value": "14.83 ± 3.54", "unit": "RFU"}, {"measurement": "Red fluorescence intensity (RFU)", "setting": "[1]; 475 μg/ml", "value": "150.67 ± 11.31", "unit": "RFU"}, {"measurement": "Red fluorescence intensity/Green fluorescence intensity", "setting": "[1]; 475 μg/ml", "value": 10.16}, {"measurement": "Green fluorescence intensity (RFU)", "setting": "[1]; 500 μg/ml", "value": "14.5 ± 2.12", "unit": "RFU"}, {"measurement": "Red fluorescence intensity (RFU)", "setting": "[1]; 500 μg/ml", "value": "152.83 ± 31.82", "unit": "RFU"}, {"measurement": "Red fluorescence intensity/Green fluorescence intensity", "setting": "[1]; 500 μg/ml", "value": 10.54}, {"measurement": "Green fluorescence intensity (RFU)", "setting": "[1]; 750 μg/ml", "value": "17.67 ± 4.24", "unit": "RFU"}, {"measurement": "Red fluorescence intensity (RFU)", "setting": "[1]; 750 μg/ml", "value": "126.17 ± 6.36", "unit": "RFU"}, {"measurement": "Red fluorescence intensity/Green fluorescence intensity", "setting": "[1]; 750 μg/ml", "value": 7.14}, {"measurement": "decrease in mitochondrial membrane potential (R/G ratio) as compared to untreated cells", "setting": "[1]; 750 μg/ml to 2 mg/ml", "value": "34% to 88.6%"}, {"measurement": "Green fluorescence intensity (RFU)", "setting": "[1]; 1000 μg/ml", "value": "^#25.83 ± 5.42^ RFU"}, {"measurement": "Red fluorescence intensity (RFU)", "setting": "[1]; 1000 μg/ml", "value": "^#102.25 ± 4.60 ^ RFU"}, {"measurement": "Red fluorescence intensity/Green fluorescence intensity", "setting": "[1]; 1000 μg/ml", "value": 3.96}, {"measurement": "Green fluorescence intensity (RFU)", "setting": "[1]; 2000 μg/ml", "value": "#41.25 ± 15.20 RFU"}, {"measurement": "Red fluorescence intensity (RFU)", "setting": "[1]; 2000 μg/ml", "value": "^#50.58 ± 0.12^ RFU"}, {"measurement": "Red fluorescence intensity/Green fluorescence intensity", "setting": "[1]; 2000 μg/ml", "value": "**1.23"}, {"measurement": "% induction of DNA fragmentation", "setting": "[2]; 100 μg/ml", "value": "−18.8", "unit": "%"}, {"measurement": "overall effect on induction of DNA fragmentation with respect to untreated", "setting": "[2]; 100 μg/ml to 5000 μg/ml", "value": "−18.8% to 83.3%"}, {"measurement": "% induction of DNA fragmentation", "setting": "[2]; 500 μg/ml", "value": 35.4, "unit": "%"}, {"measurement": "% induction of DNA fragmentation", "setting": "[2]; 1000 μg/ml", "value": 35.4, "unit": "%"}, {"measurement": "% induction of DNA fragmentation", "setting": "[2]; 2000 μg/ml", "value": 27.1, "unit": "%"}, {"measurement": "% induction of DNA fragmentation", "setting": "[2]; 5000 μg/ml", "value": 83.3, "unit": "%"}, {"measurement": "decrease in CPD", "setting": "[3]; UVB 30 mJ/cm2, 10 μg/ml", "value": 28, "unit": "%"}, {"measurement": "decrease in CPD", "setting": "[3]; UVB 30 mJ/cm2, 100 μg/ml", "value": 26, "unit": "%"}, {"measurement": "TNF-α inhibition as compared to LPS stimulated levels", "setting": "TNF-α; RAW264.7", "value": "good extent of TNF-α and IL-6 inhibition"}, {"measurement": "TNF-α % decrease with respect to LPS", "setting": "TNF-α; 0.1 μ/ml", "value": 58.8, "unit": "%"}, {"measurement": "TNF-α Conc (pg/ml)", "setting": "TNF-α; 0.1 μ/ml", "value": "1190.3*** pg/ml"}, {"measurement": "TNF-α % decrease with respect to LPS", "setting": "TNF-α; 1 μ/ml", "value": 32.1, "unit": "%"}, {"measurement": "TNF-α Conc (pg/ml)", "setting": "TNF-α; 1 μ/ml", "value": "1960.5*** pg/ml"}, {"measurement": "TNF-α % decrease with respect to LPS", "setting": "TNF-α; 5 μ/ml", "value": 34.0, "unit": "%"}, {"measurement": "TNF-α Conc (pg/ml)", "setting": "TNF-α; 5 μ/ml", "value": "1906.1*** pg/ml"}, {"measurement": "TNF-α % decrease with respect to LPS", "setting": "TNF-α; 10 μ/ml", "value": 60.2, "unit": "%"}, {"measurement": "TNF-α Conc (pg/ml)", "setting": "TNF-α; 10 μ/ml", "value": "1149.0*** pg/ml"}, {"measurement": "TNF-α % decrease with respect to LPS", "setting": "TNF-α; 100 μ/ml", "value": 17.6, "unit": "%"}, {"measurement": "TNF-α Conc (pg/ml)", "setting": "TNF-α; 100 μ/ml", "value": "2379.2* pg/ml"}, {"measurement": "TNF-α % decrease with respect to LPS", "setting": "TNF-α; 500 μ/ml", "value": 38.4, "unit": "%"}, {"measurement": "TNF-α Conc (pg/ml)", "setting": "TNF-α; 500 μ/ml", "value": "1779.9*** pg/ml"}, {"measurement": "TNF-α secretion downregulated vs LPS stimulated levels", "setting": "TNF-α; RAW264.7, 0.1 μg/ml-500 μg/ml", "value": "17.6%-60.2%"}, {"measurement": "TARC inhibition", "setting": "TARC; HaCaT", "value": "good extent of IFN-γ and TARC inhibition"}, {"measurement": "TARC % decrease with respect to TNF-α", "setting": "TARC; 0.1 μg/ml", "value": 28.6, "unit": "%"}, {"measurement": "TARC Conc", "setting": "TARC; 0.1 μg/ml", "value": 43.2, "unit": "pg/mL"}, {"measurement": "TARC % decrease with respect to TNF-α", "setting": "TARC; 1 μg/ml", "value": 11.3, "unit": "%"}, {"measurement": "TARC Conc", "setting": "TARC; 1 μg/ml", "value": 53.6, "unit": "pg/mL"}, {"measurement": "TARC % decrease with respect to TNF-α", "setting": "TARC; 5 μg/ml", "value": 1.5, "unit": "%"}, {"measurement": "TARC Conc", "setting": "TARC; 5 μg/ml", "value": 59.5, "unit": "pg/mL"}, {"measurement": "TARC % decrease with respect to TNF-α", "setting": "TARC; 10 μg/ml", "value": 5.3, "unit": "%"}, {"measurement": "TARC Conc", "setting": "TARC; 10 μg/ml", "value": 57.3, "unit": "pg/mL"}, {"measurement": "TARC % decrease with respect to TNF-α", "setting": "TARC; 100 μg/ml", "value": "−22.6", "unit": "%"}, {"measurement": "TARC Conc", "setting": "TARC; 100 μg/ml", "value": 74.1, "unit": "pg/mL"}, {"measurement": "inhibition at 50 µg/mL", "setting": "FLT1 (VEGFR1); 50 μg/ml", "value": 44, "unit": "%"}, {"measurement": "inhibition at 100 µg/mL", "setting": "FLT1 (VEGFR1); 100 μg/ml", "value": -16, "unit": "%"}, {"measurement": "inhibition at 250 µg/mL", "setting": "FLT1 (VEGFR1); 250 μg/ml", "value": -28, "unit": "%"}, {"measurement": "inhibition at 500 µg/mL", "setting": "FLT1 (VEGFR1); 500 μg/ml", "value": -44, "unit": "%"}, {"measurement": "inhibition at 1000 µg/mL", "setting": "FLT1 (VEGFR1); 1000 μg/ml", "value": -110, "unit": "%"}]}
